Measured values published in ChEMBL document CHEMBL2331529, “Design and Synthesis of Potent Bivalent Peptide Agonists Targeting the EphA2 Receptor” (ACS Med Chem Lett, 2013).
Active and inactive are the calls of the source. The rule behind the calls is not given here.

How the values were obtained:
[1] = target: Ephrin type-A receptor 4 (Homo sapiens) (UniProt P54764); experiment: Agonist activity at IgG1 Fc region fused-immobilized EphA4 (unknown origin) assessed as inhibition of EphA4/ephrin-A5 AP interaction at 10 uM incubated for 3 hrs by ELISA
[2] = target: T1, Ephrin type-B receptor 2 (Homo sapiens) (UniProt P29323); experiment: Agonist activity at IgG1 Fc region fused-immobilized EphB2 (unknown origin) assessed as inhibition of EphB2/ephrin-B2 AP interaction at 10 uM incubated for 3 hrs by ELISA
T1 sequence (whole entry): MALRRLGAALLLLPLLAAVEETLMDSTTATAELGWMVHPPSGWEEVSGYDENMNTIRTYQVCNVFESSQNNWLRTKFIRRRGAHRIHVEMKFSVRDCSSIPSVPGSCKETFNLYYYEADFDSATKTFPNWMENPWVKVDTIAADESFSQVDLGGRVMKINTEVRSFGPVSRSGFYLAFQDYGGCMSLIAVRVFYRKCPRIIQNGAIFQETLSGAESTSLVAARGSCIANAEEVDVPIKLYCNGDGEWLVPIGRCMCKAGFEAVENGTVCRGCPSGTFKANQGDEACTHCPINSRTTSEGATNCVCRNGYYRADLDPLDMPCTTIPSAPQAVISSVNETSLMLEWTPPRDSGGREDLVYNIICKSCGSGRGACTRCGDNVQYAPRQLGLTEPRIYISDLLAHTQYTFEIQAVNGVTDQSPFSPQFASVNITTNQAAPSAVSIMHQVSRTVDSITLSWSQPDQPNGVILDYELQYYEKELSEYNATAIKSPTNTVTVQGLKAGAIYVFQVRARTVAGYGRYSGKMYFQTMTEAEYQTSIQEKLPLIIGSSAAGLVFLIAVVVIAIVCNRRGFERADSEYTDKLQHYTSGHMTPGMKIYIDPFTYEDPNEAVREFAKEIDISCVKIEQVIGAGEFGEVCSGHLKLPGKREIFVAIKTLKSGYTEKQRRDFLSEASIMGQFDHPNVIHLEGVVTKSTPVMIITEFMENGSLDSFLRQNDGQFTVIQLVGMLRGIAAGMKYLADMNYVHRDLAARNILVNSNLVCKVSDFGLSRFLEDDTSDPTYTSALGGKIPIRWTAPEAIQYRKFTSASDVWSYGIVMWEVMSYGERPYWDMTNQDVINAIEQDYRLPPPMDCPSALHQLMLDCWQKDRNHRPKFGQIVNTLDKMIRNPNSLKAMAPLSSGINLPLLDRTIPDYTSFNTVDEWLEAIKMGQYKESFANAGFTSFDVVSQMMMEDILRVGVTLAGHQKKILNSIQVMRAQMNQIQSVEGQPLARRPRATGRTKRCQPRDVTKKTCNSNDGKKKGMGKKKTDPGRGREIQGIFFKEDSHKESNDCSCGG

Ephrin type-A receptor 2 = Ephrin type-A receptor 2 (Homo sapiens, UniProt P29317); experiment: Agonist activity at IgG1 Fc region fused-immobilized EphA2 ectodomain (unknown origin) assessed as inhibition of EphA2/ephrin-A5 AP interaction incubated for 3 hrs by ELISA
Ephrin type-A receptor 2, sequence (P29317 whole entry, the tested form may be a part): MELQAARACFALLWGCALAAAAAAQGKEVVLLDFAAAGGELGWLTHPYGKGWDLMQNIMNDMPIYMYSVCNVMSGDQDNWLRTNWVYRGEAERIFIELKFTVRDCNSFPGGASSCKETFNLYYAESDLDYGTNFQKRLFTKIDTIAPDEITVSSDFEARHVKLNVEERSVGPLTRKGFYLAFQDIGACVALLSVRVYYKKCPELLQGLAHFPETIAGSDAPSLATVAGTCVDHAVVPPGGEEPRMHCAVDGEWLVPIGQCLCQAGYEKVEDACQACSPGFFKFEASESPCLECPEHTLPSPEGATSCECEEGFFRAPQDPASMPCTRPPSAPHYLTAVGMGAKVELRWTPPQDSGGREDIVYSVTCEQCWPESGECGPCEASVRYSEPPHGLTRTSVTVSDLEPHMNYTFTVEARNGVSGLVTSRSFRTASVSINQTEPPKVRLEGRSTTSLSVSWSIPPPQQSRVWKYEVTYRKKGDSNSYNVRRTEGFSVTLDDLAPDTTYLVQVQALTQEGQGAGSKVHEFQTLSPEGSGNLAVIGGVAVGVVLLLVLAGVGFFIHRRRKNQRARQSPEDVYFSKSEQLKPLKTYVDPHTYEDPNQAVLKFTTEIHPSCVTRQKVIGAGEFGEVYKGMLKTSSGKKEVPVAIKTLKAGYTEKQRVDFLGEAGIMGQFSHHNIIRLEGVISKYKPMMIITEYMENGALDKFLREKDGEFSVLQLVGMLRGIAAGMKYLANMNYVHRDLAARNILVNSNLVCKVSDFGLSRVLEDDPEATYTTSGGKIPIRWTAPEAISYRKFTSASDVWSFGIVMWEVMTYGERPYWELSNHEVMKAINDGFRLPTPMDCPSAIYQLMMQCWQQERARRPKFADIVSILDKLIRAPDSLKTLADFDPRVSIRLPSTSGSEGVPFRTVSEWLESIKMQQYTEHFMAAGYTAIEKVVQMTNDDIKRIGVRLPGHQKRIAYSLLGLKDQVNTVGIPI

Ephrin type-A receptor 4 (Homo sapiens), sequence (P54764 whole entry, the tested form may be a part): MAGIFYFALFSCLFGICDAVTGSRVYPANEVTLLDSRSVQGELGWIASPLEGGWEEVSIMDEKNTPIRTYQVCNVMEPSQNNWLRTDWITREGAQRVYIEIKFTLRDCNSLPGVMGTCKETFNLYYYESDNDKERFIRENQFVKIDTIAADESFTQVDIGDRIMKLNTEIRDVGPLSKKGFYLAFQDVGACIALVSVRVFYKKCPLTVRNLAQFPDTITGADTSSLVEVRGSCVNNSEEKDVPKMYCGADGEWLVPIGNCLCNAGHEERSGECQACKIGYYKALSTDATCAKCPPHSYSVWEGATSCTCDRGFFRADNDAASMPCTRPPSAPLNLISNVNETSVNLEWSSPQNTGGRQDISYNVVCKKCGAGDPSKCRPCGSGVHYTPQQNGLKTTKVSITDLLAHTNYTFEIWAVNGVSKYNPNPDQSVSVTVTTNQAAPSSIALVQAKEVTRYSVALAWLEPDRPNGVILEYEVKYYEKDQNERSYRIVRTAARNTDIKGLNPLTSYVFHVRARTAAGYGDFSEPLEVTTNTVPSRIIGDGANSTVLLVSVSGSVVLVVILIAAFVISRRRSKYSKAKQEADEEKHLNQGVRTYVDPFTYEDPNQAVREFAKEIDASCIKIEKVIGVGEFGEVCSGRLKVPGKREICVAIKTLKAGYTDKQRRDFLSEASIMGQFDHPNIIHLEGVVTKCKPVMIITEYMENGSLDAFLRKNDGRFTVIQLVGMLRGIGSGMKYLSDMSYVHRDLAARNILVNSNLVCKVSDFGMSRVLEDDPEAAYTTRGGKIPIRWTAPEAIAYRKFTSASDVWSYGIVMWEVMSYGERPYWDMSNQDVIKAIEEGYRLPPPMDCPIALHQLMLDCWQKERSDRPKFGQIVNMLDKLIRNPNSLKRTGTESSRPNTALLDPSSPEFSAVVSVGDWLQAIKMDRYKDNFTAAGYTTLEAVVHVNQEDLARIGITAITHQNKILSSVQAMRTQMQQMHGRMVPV

| Molecule | inhibition [1] | inhibition [2] | IC50 (Ephrin type-A receptor 2) [µM] |
| --- | --- | --- | --- |
| CC(C)C[C@H](NC(=O)[C@H](C)NC(=O)[C@H](Cc1ccc(O)cc1)NC(=O)[C@@H]1CCCN1C(=O)CNC(=O)[C@H](C)NC(=O)[C@@H](NC(=O)[C@H](CO)NC(=O)[C@H](Cc1ccc(O)cc1)NC(=O)[C@H](CCCNC(=N)N)NC(=O)[C@H](CCCCNC(=O)CCCCCN)NC(=O)[C@H](CCCNC(=N)N)NC(=O)[C@H](Cc1ccc(O)cc1)NC(=O)[C@H](CO)NC(=O)[C@@H](NC(=O)[C@H](C)NC(=O)CNC(=O)[C@@H]1CCCN1C(=O)[C@H](Cc1ccc(O)cc1)NC(=O)[C@H](C)NC(=O)[C@H](CC(C)C)NC(=O)[C@H](Cc1c[nH]c2ccccc12)NC(=O)[C@@H](N)CO)C(C)C)C(C)C)C(=O)N[C@@H](Cc1c[nH]c2ccccc12)C(=O)N[C@@H](CO)C(=O)O | Active | Active |  |
| H-SWLSYPGAVSYR-OH |  |  | > 100 |

Results, then the molecule that gave them:

| inhibition [1] | inhibition [2] | IC50 (Ephrin type-A receptor 2) [µM] | Molecule |
| --- | --- | --- | --- |
|  |  | ≥ 100 | H-SALAYPGAVSYR-OH |
|  |  | ≥ 100 | H-SWLAAPGAVSYR-OH |
|  |  | ≥ 100 | H-SWLAYAGAVSYR-OH |
